Data as given in patent publication US8642585B2, “Indanyloxydihydrobenzofuranylacetic acids” (Boehringer Ingelheim International GmbH, priority 2012, dated 2014).

Target: human GPR40 receptor (Homo sapiens, UniProt O14842)
Assay: Assay II: IP1 accumulation (IPOne HTRF) in 1321N1 cells stably expressing human GPR40
Assay type: cell-based
Details: 1321N1 cells expressing human GPR40, stimulation 1 h at 37° C., 5% CO2, LiCl 50 mM
Method in brief: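 1321N1 cells stably expressing human GPR40, seeded 24 h earlier, were stimulated with compound for 1 h at 37 °C in LiCl (50 mM) buffer, pH 7.4. IP1 measured by HTRF (665/615 ratio) after lysis and 1 h room temperature; pEC50 via IP1 reference curve and variable-slope sigmoidal fit.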

human GPR40 receptor, sequence (O14842 whole entry): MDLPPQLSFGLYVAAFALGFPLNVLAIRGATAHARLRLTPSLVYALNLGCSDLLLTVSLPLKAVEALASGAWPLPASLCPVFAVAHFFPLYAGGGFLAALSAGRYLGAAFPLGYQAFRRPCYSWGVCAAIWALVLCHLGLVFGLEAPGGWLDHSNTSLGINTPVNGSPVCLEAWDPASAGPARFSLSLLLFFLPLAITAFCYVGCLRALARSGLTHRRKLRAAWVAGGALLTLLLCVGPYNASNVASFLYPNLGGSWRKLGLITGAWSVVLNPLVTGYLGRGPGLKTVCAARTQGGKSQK

Row | SMILES | EC50 [nM]
1 | COc1ccc(-c2cc(C)c(-c3ccc(F)c4c3CC[C@H]4Oc3ccc4c(c3)OC[C@H]4CC(=O)O)c(C)c2)cn1 [Example 126, {(S)-6-[(R)-4-(2,6-Dimethyl-4-(6-methoxy-pyridin-3-yl)-phenyl)-7-fluoro-indan-1-yloxy]-2,3-dihydro-benzofuran-3-yl}-acetic acid] | 6
2 | O=C(O)C[C@@H]1COc2cc(O[C@@H]3CCc4c(-c5cccnc5N5CCCOCC5)ccc(F)c43)ccc21 [Example 127, {(S)-6-[(R)-7-Fluoro-4-(2-[1,4]oxazepan-4-yl-pyridin-3-yl)-indan-1-yloxy]-2,3-dihydro-benzofuran-3-yl}-acetic acid] | 48
3 | O=C(O)C[C@@H]1COc2cc(O[C@@H]3CCc4c(-c5cccnc5N5CCOCC5)ccc(F)c43)ccc21 [Example 128, {(S)-6-[(R)-7-Fluoro-4-(2-morpholin-4-yl-pyridin-3-yl)-indan-1-yloxy]-2,3-dihydro-benzofuran-3-yl}-acetic acid] | 288
4 | COc1cnnc(-c2cc(C)c(-c3ccc(F)c4c3CC[C@H]4Oc3ccc4c(c3)OC[C@H]4CC(=O)O)c(C)c2)c1 [Example 129, {(S)-6-[(R)-4-(2,6-Dimethyl-4-(5-methoxy-pyridazin-3-yl)-phenyl)-7-fluoro-indan-1-yloxy]-2,3-dihydro-benzofuran-3-yl}-acetic acid] | 4
5 | Cc1cc(-c2cc(C)c(-c3ccc(F)c4c3CC[C@H]4Oc3ccc4c(c3)OC[C@H]4CC(=O)O)c(C)c2)cnn1 [Example 130, {(S)-6-[(R)-4-(2,6-Dimethyl-4-(6-methyl-pyridazin-4-yl)-phenyl)-7-fluoro-indan-1-yloxy]-2,3-dihydro-benzofuran-3-yl}-acetic acid] | 5
6 | Cc1cc(-c2cn(C)c(C)n2)cc(C)c1-c1ccc(F)c2c1CC[C@H]2Oc1ccc2c(c1)OC[C@H]2CC(=O)O [Example 131, {(S)-6-[(R)-4-(2,6-Dimethyl-4-(1,2-dimethyl-imidazol-4-yl)-phenyl)-7-fluoro-indan-1-yloxy]-2,3-dihydro-benzofuran-3-yl}-acetic acid] | 2
7 | Cc1cc(-c2nccs2)cc(C)c1-c1ccc(F)c2c1CC[C@H]2Oc1ccc2c(c1)OC[C@H]2CC(=O)O [Example 132, {(S)-6-[(R)-4-(2,6-Dimethyl-4-thiazol-2-yl-phenyl)-7-fluoro-indan-1-yloxy]-2,3-dihydro-benzofuran-3-yl}-acetic acid] | 2
8 | Cc1cc(-c2cn(C)cn2)cc(C)c1-c1ccc(F)c2c1CC[C@H]2Oc1ccc2c(c1)OC[C@H]2CC(=O)O [Example 133, {(S)-6-[(R)-4-(2,6-Dimethyl-4-(1-methyl-imidazol-4-yl)-phenyl)-7-fluoro-indan-1-yloxy]-2,3-dihydro-benzofuran-3-yl}-acetic acid] | 2
9 | Cc1nc(-c2cc(C)c(-c3ccc(F)c4c3CC[C@H]4Oc3ccc4c(c3)OC[C@H]4CC(=O)O)c(C)c2)no1 [Example 134, {(S)-6-[(R)-4-(2,6-Dimethyl-4-(5-methyl-[1,2,4]oxadiazol-3-yl)-phenyl)-7-fluoro-indan-1-yloxy]-2,3-dihydro-benzofuran-3-yl}-acetic acid] | 3
10 | COc1ccc(-c2cc(C)c(-c3ccc(F)c4c3CC[C@H]4Oc3ccc4c(c3)OC[C@H]4CC(=O)O)c(C)c2)nc1 [Example 135, {(S)-6-[(R)-4-(2,6-Dimethyl-4-(5-methoxy-pyridin-2-yl)-phenyl)-7-fluoro-indan-1-yloxy]-2,3-dihydro-benzofuran-3-yl}-acetic acid] | 7
11 | Cc1cc(-c2noc(C(C)(C)O)n2)cc(C)c1-c1ccc(F)c2c1CC[C@H]2Oc1ccc2c(c1)OC[C@H]2CC(=O)O [Example 136, {(S)-6-[(R)-4-(2,6-Dimethyl-4-(5-[2-hydroxy-prop-2-yl]-[1,2,4]oxadiazol-3-yl)-phenyl)-7-fluoro-indan-1-yloxy]-2,3-dihydro-benzofuran-3-yl}-acetic acid] | 3
12 | Cc1cc(-c2ccccn2)cc(C)c1-c1ccc(F)c2c1CC[C@H]2Oc1ccc2c(c1)OC[C@H]2CC(=O)O [Example 137, {(S)-6-[(R)-4-(2,6-Dimethyl-4-pyridin-2-yl-phenyl)-7-fluoro-indan-1-yloxy]-2,3-dihydro-benzofuran-3-yl}-acetic acid] | 2
13 | Cc1cccnc1-c1cc(C)c(-c2ccc(F)c3c2CC[C@H]3Oc2ccc3c(c2)OC[C@H]3CC(=O)O)c(C)c1 [Example 138, {(S)-6-[(R)-4-(2,6-Dimethyl-4-(3-methyl-pyridin-2-yl)-phenyl)-7-fluoro-indan-1-yloxy]-2,3-dihydro-benzofuran-3-yl}-acetic acid] | 9
14 | Cc1cccc(-c2cc(C)c(-c3ccc(F)c4c3CC[C@H]4Oc3ccc4c(c3)OC[C@H]4CC(=O)O)c(C)c2)n1 [Example 139, {(S)-6-[(R)-4-(2,6-Dimethyl-4-(6-methyl-pyridin-2-yl)-phenyl)-7-fluoro-indan-1-yloxy]-2,3-dihydro-benzofuran-3-yl}-acetic acid] | 2
15 | Cc1ccnc(-c2cc(C)c(-c3ccc(F)c4c3CC[C@H]4Oc3ccc4c(c3)OC[C@H]4CC(=O)O)c(C)c2)c1 [Example 140, {(S)-6-[(R)-4-(2,6-Dimethyl-4-(4-methyl-pyridin-2-yl)-phenyl)-7-fluoro-indan-1-yloxy]-2,3-dihydro-benzofuran-3-yl}-acetic acid] | 2
16 | Cc1cc(C)nc(-c2cc(C)c(-c3ccc(F)c4c3CC[C@H]4Oc3ccc4c(c3)OC[C@H]4CC(=O)O)c(C)c2)c1 [Example 141, {(S)-6-[(R)-4-(2,6-Dimethyl-4-(4,6-dimethyl-pyridin-2-yl)-phenyl)-7-fluoro-indan-1-yloxy]-2,3-dihydro-benzofuran-3-yl}-acetic acid] | 3
17 | Cc1cn(C)c(-c2cc(C)c(-c3ccc(F)c4c3CC[C@H]4Oc3ccc4c(c3)OC[C@H]4CC(=O)O)c(C)c2)n1 [Example 142, {(S)-6-[(R)-4-(2,6-Dimethyl-4-(1,4-dimethyl-imidazol-2-yl)-phenyl)-7-fluoro-indan-1-yloxy]-2,3-dihydro-benzofuran-3-yl}-acetic acid] | 16
18 | Cc1ccc(-c2cc(C)c(-c3ccc(F)c4c3CC[C@H]4Oc3ccc4c(c3)OC[C@H]4CC(=O)O)c(C)c2)nc1 [Example 143, {(S)-6-[(R)-4-(2,6-Dimethyl-4-(5-methyl-pyridin-2-yl)-phenyl)-7-fluoro-indan-1-yloxy]-2,3-dihydro-benzofuran-3-yl}-acetic acid] | 3
19 | Cc1cc(-c2nccn2C)cc(C)c1-c1ccc(F)c2c1CC[C@H]2Oc1ccc2c(c1)OC[C@H]2CC(=O)O [Example 144, {(S)-6-[(R)-4-(2,6-Dimethyl-4-(1-methyl-imidazol-2-yl)-phenyl)-7-fluoro-indan-1-yloxy]-2,3-dihydro-benzofuran-3-yl}-acetic acid] | 17
20 | Cc1cc(OCc2ccn(C)n2)cc(C)c1-c1ccc(F)c2c1CC[C@H]2Oc1ccc2c(c1)OC[C@H]2CC(=O)O [Example 145, 2-((S)-6-((R)-4-(2,6-dimethyl-4-((1-methyl-1H-pyrazol-3-yl)methoxy)phenyl)-7-fluoro-2,3-dihydro-1H-inden-1-yloxy)-2,3-dihydrobenzofuran-3-yl)acetic acid] | 15
